Data taken from publication PMC12298391, “Novel Lung Cell-Penetrating Peptide Targets Alveolar Epithelial Type II Cells, Basal Cells, and Ionocytes” (Pharmaceutics, 2025).
Where a SMILES comes first, the peptide text is derived from it. The star is where a group is joined. X1 = CN1C(=CC=CC=CC2=[N+](CCCCCC(=O)*)c3ccc4ccccc4c3C2(C)C)C(C)(C)c2c1ccc1ccccc21

How the values were obtained:
[1] = Serum stability in fetal bovine serum, mass spectrometry; type: in vitro ADME; conditions: 10 µg/mL, 37 °C/5% CO2, 0-360 min, acetonitrile precipitation, C-peptide internal standard, LC-MS full scan peak area, triplicate
Procedure: At the end of each incubation time point, the tubes were removed and placed on ice; 25 µL of 1 µM C-peptide as an internal standard was added to the tube and vigorously vortexed for 15 s, followed by the addition of 500 μL of acetonitrile to each tube, vortexing for 30 secs, and centrifugation at maximum speed in a tabletop centrifuge for 5 min at 4 °C. The clear supernatant was transferred to a new tube and analyzed using mass spectrophotometry. A full MS scan was performed from 600.0 to 725.0 m/z (mass/charge) without fragmentations in positive polarity at a resolution of 70,000 (the range option is 17,500–140,000). The maximum injection time was 200 msec. The gas flow rates in arbitrary units were as follows: 48 for sheath, 11 for auxiliary, and 3 for sweep. The spray voltage was 4.00 kV, with a spray current of 5.90µA, a capillary temperature of 320 °C, and an auxiliary gas temperature of 250 °C with the S-lens Radio Frequency (RF) set to 50 (arbitrary units from 0 to 100). […] Intensities were quantified as the peak area containing all ion species within the specified m/+2 range. Then, 20 µL of the sample was injected onto an Eclipse Plus C18 column (1.8 um; 2.1 × 50 mm) at 45 °C at a rate of 0.3 mL/min and eluted with a gradient of acetonitrile (in 0.1% formic acid) using water in 0.1% formic acid as the aqueous phase. […]

[2] = system: Human bronchial epithelial cells; assay: Confocal microscopy of peptide uptake by HBECs; type: cell-based; conditions: 10 μM Cy5.5 peptide, 2, 10 and 30 min, 37 °C
Procedure: Identification and biodistribution of lung-targeting peptides: Eleven “alanine mutant” versions of CTP were synthesized along with the 6 N-terminus CTP-A (APWHLS) and 6 C-terminus CTP-B (SQYSRT), along with CTP peptide as a standard comparison. H9C2 cells, a rat cardiomyoblast cell line, were incubated with 10 μM of the fluorescent peptides, and FACS was performed (Figure 1A). H9C2 cells were chosen because initial phage display studies that led to the identification of CTP were conducted in this cell line, and we had prior evidence of successful transduction of these cells with CTP, which we used as a reference for comparing the alanine mutants. […]. These were injected intravenously in wild-type CD1 mice at a dose of 10 mg/kg. Counter to our expectations, uptake in the heart was negligible. […]; Supplementary Figure S1). […]
Supplemental Figure S2: Human bronchial epithelial cells transduce robustly with LTPs.
Human bronchial epithelial cells were plated on cover slips and treated with 10μM of linear
3x with pre-warmed PBS, fixed, counterstained with DAPI and confocal microscopy
have a cytoplasmic, peri-nuclear localization. Random peptide has very little to no uptake.
(1 picture or pasted object on this page, not shown here)

[3] = system: human Cystic Fibrosis bronchial epithelial cells (CFBE41o-); assay: Transferrin uptake assay, colocalization with endocytosed Alexa-488 transferrin; type: cell-based; conditions: confocal; for Uptake by CFBE41o- cells over time: 4 °C, then 5 and 30 min at 37 °C; for Co-localization with endocytosed Alexa-488 transferrin: serum-starved cells, Cy5.5 peptides
Procedure: Endocytosis studies: In order to investigate the mechanism of cell entry, human bronchial epithelial cells (HBECs) were serum-starved overnight and subsequently treated with specific endocytic pathway inhibitors. […] At the end of the incubation period, the cells were washed, trypsinized, harvested, and fixed with 2% PFA for 10 min at room temperature (RT), followed by a single wash and resuspension in PBS, and they were subjected to FACS analysis. […] The cells were washed with cold PBS, incubated with Alexa-488-labeled transferrin on ice in a cold room, and incubated for an hour. At the end of incubation, Cy5.5-labeled random, linear or cyclic LTPs were added and transferred to 37 °C, and after each time point, the cells were washed and fixed in 4% PFA. The cells were stained with Hoechst and mounted for confocal imaging.
Figure 5 Cystic Fibrosis bronchial epithelial cells (CFBE41o-) uptake S7A and R11A without colocalization with endocytosed transferrin. CFBE41o- cells were serum-starved, followed by incubation with transferrin-488, or Cy5.5-labeled linear or cyclic Random, S7A, or R11A, followed by fixation at indicated time points, and confocal microscopy performed. […] (A). Linear peptide colocalization. (B). Cyclic peptide colocalization. (C). Quantification of relative fluorescence of cyclic peptides. ** p < 0.01, *** p < 0.001.

[4] = system: lung cell types of wild-type mice; assay: Confocal microscopy of lung sections of injected mice cross-stained with cell markers; type: in vivo, mouse; conditions: 10 mg/kg i.v., 15 min, N = 3
Procedure: Animal studies: All animal protocols were approved by the University of Pittsburgh and the Mayo Clinic’s Institutional Animal Care and Use Committee. Wild-type, 6-week-old, CD1 (Charles Rivers, Wilmington, MA, USA; Cat #022) mice were weighed and anesthetized with an intraperitoneal injection of a 1:1 cocktail of Ketamine–Xylazine at 1–2 μL/gm body weight, followed by intravenous injection with Cy5.5-labeled peptides that were allowed to circulate for various time points. At the end of the circulation times, the mice were euthanized using inhalational CO2, their chest cavity was opened, their right atrium nicked and 3–5 mL of 10% formalin was injected through the left ventricular apex to perfusion-fix the animals. Various organs were harvested, rinsed once in PBS and imaged using an In Vivo Imaging System (IVIS; PerkinElmer Inc., Waltham, MA, USA) with identical instrument settings (stage position, exposure time, binning, F-stop, etc.). The organs were placed in 10% formalin at RT for 4 h, transferred to 15% sucrose at 4 °C overnight, followed by 30% sucrose at 4 °C overnight, before being embedded and cryo-sectioned at 6 μM thickness. […]

[5] = mouse, in vivo, iv, 5 mg/kg
Procedure: (§1) Wild-type, 6-week-old, CD1 (Charles Rivers, Wilmington, MA, USA; Cat #022) mice were weighed and anesthetized with an intraperitoneal injection of a 1:1 cocktail of Ketamine–Xylazine at 1–2 μL/gm body weight, followed by intravenous injection with Cy5.5-labeled peptides that were allowed to circulate for various time points. At the end of the circulation times, the mice were euthanized using inhalational CO2, their chest cavity was opened, their right atrium nicked and 3–5 mL of 10% formalin was injected through the left ventricular apex to perfusion-fix the animals. Various organs were harvested, rinsed once in PBS and imaged using an In Vivo Imaging System (IVIS; PerkinElmer Inc., Waltham, MA, USA) with identical instrument settings (stage position, exposure time, binning, F-stop, etc.). The organs were placed in 10% formalin at RT for 4 h, transferred to 15% sucrose at 4 °C overnight, followed by 30% sucrose at 4 °C overnight, before being embedded and cryo-sectioned at 6 μM thickness. The sections were cross-stained with various primary antibodies for ATII cells (ABCA3), basal cells (p63, KRT5), ionocytes (FOXI1), goblet cells (MUC5AC), ATI cells (HOPX), ciliated cells (acetylated tubulin), club cells (Uteroglobin), pulmonary endothelial cells (CD31), and airway smooth muscle cells (α-SMA) overnight at 4 °C. The sections were washed and incubated with Alexa-Fluor-488-conjugated secondary antibody at RT for 1 h. Additionally, kidney sections were stained with Lotus tetragonolobus Lectin-FITC (LTL-FITC) at RT for 1 h. All sections were then washed and mounted with DAPI, and confocal microscopy was performed. All peptides and time points were tested in triplicate (N = 3).

wild-type CD1 mice = conditions: 15 min, N = 3; for Uptake in the heart: confocal
Procedure: as §1

[6] = system: SARS-CoV-2 (strain USA_WA1/2020); assay: microbe, parasite or virus in culture; type: cell-based; conditions: Severe acute respiratory syndrome coronavirus 2; HBEC inserts, air-liquid interface; treatment apical and basolateral 24 h prior to infection; MOI ~0.0015 CCID50 per cell; virus collected after 5 days, titrated on Vero 76; triplicate; read-out: EC90 (inhibition of viral replication)

## CC(C)C[C@H](NC(=O)[C@H](Cc1c[nH]cn1)NC(=O)[C@H](Cc1c[nH]c2ccccc12)NC(=O)[C@@H]1CCCN1C(=O)[C@H](C)NC(=O)CCCCC[N+]1=C(C=CC=CC=C2N(C)c3ccc4ccccc4c3C2(C)C)C(C)(C)c2c1ccc1ccccc21)C(=O)N[C@@H](CO)C(=O)N[C@@H](CO)C(=O)N[C@@H](CCC(N)=O)C(=O)N[C@@H](Cc1ccc(O)cc1)C(=O)N[C@@H](CO)C(=O)N[C@@H](C)C(=O)N[C@H](C(N)=O)[C@@H](C)O [R11A]
[1]
  Serum stability: susceptibility to immediate degradation upon exposure to serum
[2]
  Uptake by HBECs (confocal): taken up at 10 min with uptake increasing at 30 min
[3]
  Uptake by CFBE41o- cells over time: increasing uptake at 5 and 30 min
  Co-localization with endocytosed Alexa-488 transferrin: did not show co-localization
[4]
  Uptake in AT2 and p63+ cells (confocal) compared with cR11A: much lesser amounts
  Uptake in ionocytes, AT-1, club, ciliated, goblet, endothelial and smooth muscle cells (confocal): no uptake
[5]
  tissue to tissue ratio at 0.25 h: 8
wild-type CD1 mice; 1 mg/kg i.v., ex vivo IVIS
  Lung uptake at lowest dose: robust lung uptake
wild-type CD1 mice; 10 mg/kg i.v., CD1 mice
  Uptake in the heart: negligible

## TALACYPHTVGQ [RAN, scrambled, random peptide […] used as control, reference compound]
[2]
  Uptake by HBECs (confocal): no uptake

## CCC(CC)COC(=O)[C@H](C)N[P@](=O)(OC[C@H]1O[C@@](C#N)(c2ccc3c(N)ncnn23)[C@H](O)[C@@H]1O)Oc1ccccc1 [Remdesivir]
[6]
  EC90: 19 nM

## CC(C)C[C@H](NC(=O)[C@H](Cc1c[nH]cn1)NC(=O)[C@H](Cc1c[nH]c2ccccc12)NC(=O)[C@@H]1CCCN1C(=O)[C@H](C)NC(=O)CCCCC[N+]1=C(C=CC=CC=C2N(C)c3ccc4ccccc4c3C2(C)C)C(C)(C)c2c1ccc1ccccc21)C(=O)N[C@@H](CO)C(=O)N[C@@H](C)C(=O)N[C@@H](CCC(N)=O)C(=O)N[C@@H](Cc1ccc(O)cc1)C(=O)N[C@@H](CO)C(=O)N[C@@H](CCCNC(=N)N)C(=O)N[C@H](C(N)=O)[C@@H](C)O [S7A] (X1-APWHLSAQYSRT-NH2; C-terminus assumed)
[2]
  Uptake by HBECs (confocal): taken up at 10 min with uptake increasing at 30 min
[3]
  Uptake by CFBE41o- cells over time: increasing uptake at 5 and 30 min
  Co-localization with endocytosed Alexa-488 transferrin: did not show co-localization
[5]
  tissue to tissue ratio at 0.25 h: ~2.5
wild-type CD1 mice; 10 mg/kg i.v., CD1 mice
  Uptake in the heart: negligible
wild-type CD1 mice; 10 mg/kg i.v., CD1 mice, confocal/IVIS
  Lung uptake: robust lung uptake
